In brackets after ≈: the same amount, converted by molar mass.
Assays:
[1] = Supersaturation-precipitation and absorption in the dynamic gastrointestinal model (DGIM); type: physicochemical
Description: The DGIM is achieved through a system consisting of 3 dissolution cups, which represent stomach, duodenum, and jejunum, respectively, filled with corresponding biorelevant fluid. N-octanol serves as the absorptive phase. The pumps facilitate fluid transfer, as depicted by arrows in Figure 9. In situ drug concentration is determined using fiber optical probes, and dynamic pH value of the aqueous fluid is monitored by pH electrodes. The parameters of DGIM can be adjusted to meet some special physiological conditions.
In this study, most of the parameters were based on the GIS proposed by Hens et al.. The pH values in the three cups were adjusted to 2.0, 5.9, and 6.1, respectively, to simulate the physiological digestive fluid in the stomach, duodenum, and jejunum of the fasted rats. […] The secretions used were biorelevant fluids that had been concentrated four times and pumped at a rate of 1 mL/min. Considering an average gastric half-emptying time ( th ) of approximately eight minutes, pump A transported gastric fluid into the duodenal cup at this first-order rate. Ensuring that the volume of biorelevant fluid in the duodenal cup was maintained at a constant level of 50 mL, any excess fluid was transported to the jejunal cup through pump B. Therefore, we can represent the rates va for pump A and vb for pump B at time t using following equations:(5) va=ln2×Vg,0×exp−ln2×t/th+1 (6) vb=va+1
The pump rate was regulated by a mono-chip computer, which was programmed to dynamically adjust the rate every second in accordance with first-order kinetics. […] The pumps worked until 40 min because, at that time, the solution in the gastric cup was less than 10 mL. However, the experiment continued for 3 h. The paddles were stirred at a rate of 50 rpm. All the cups were in a water bath at 37 °C.
Fiber optic probes with a 1 mm tip were connected to the instrument and employed for the detection of the 270–275 nm wavelength band. This detection specifically targeted the area under the curve (AUC) of the second derivatized absorbance curves. Calibration was performed using the accumulated addition method. The standard curves encompassed a wide concentration range in the dissolution process while ensuring linearity with an r^2 > 0.999.

[2] = IVIVC prediction based on DGIM in vitro absorption data; set-up: species or system Male Sprague Dawley rats; details: predicted through IVIVC from DGIM
Description: (§1) The in vitro–in vivo correlation (IVIVC) was performed using Phoenix 8.1 IVIVC Toolkit (Certara, Princeton, NJ, USA). […] Double Weibull Dissolution Model was selected for fitting both dissolution data from the absorptive phase of DGIM and USP II. The absorption data were obtained via deconvolution analysis of the drug plasma concentration–time curves. The reference formulation for deconvolution to estimate oral absorption was based on the in vivo data of the i.v. group. Additionally, both control group and PVPVA group’s in vitro data were used to establish a correlation between dissolved fraction and absorbed fraction, while the HPMC group’s data served as external validation. The maximum number of unit impulse response exponentials defaulted to three. With WinNonlin Generated Initial Parameter and Winnonlin Bounds, the best correlation model was selected according to the lowest AIC. Validation parameters included AUClast calculated with linear trapezoidal method along with linear interpolation averaging as mean values were adopted. The process of prediction followed the same parameters above. The prediction error (PE) was evaluated following the FDA’s guidance.

In vivo pharmacokinetics = assay: In vivo pharmacokinetics; set-up: species or system Male Sprague Dawley rats; details: plasma, rat
Description: The animal study was conducted in accordance with the National Research Council’s Guide for the Care and Use of Laboratory Animals and approved by the Ethics Committee of Chengdu University of Traditional Chinese Medicine (Approval Code: 2021-76). All procedures were performed in compliance with relevant regulations and guidelines. Male Sprague Dawley rats weighing 180–220 g were fasted overnight (12 h) with free access to water, then randomly assigned to 4 groups (n = 6). […] Approximately 50 μL of blood samples were collected into EDTA-K2-treated Eppendorf tubes at time points ranging from 0.083, 0.25, 0.5, 1, 2, 4, and 6 to 10 h after dosing. The blood samples were centrifuged at 2000× g and 4 °C for 10 min, followed by collection and storage of the supernatant plasma at −20 °C until analysis. […] A protein precipitation method was employed to pretreat 10 μL plasma with 430 μL acetonitrile, 50 μL internal standard solution (gefitinib), and 10 μL mobile phase. After centrifugation at 10,000× g for 10 min at 4 °C, the supernatant was injected into the apparatus and then separated by a Thermo Hypersil C18 chromatographic column (3 μm, 2.1 mm × 50 mm) at 40 °C. […] Phoenix 8.1 WinNonlin Toolkit (Certara, Princeton, NJ, USA) was employed to conduct the non-compartment model of pharmacokinetic analysis.

[3] = IVIVC prediction based on USP II in vitro absorption data; set-up: species or system Male Sprague Dawley rats; details: predicted through IVIVC from USP II
Description: as §1

[4] = phosphate buffer ref 19; cited from earlier work
[5] = pH-dependent equilibrium solubility of ketoconazole in biorelevant fluids (FaSSIF) with or without precipitation inhibitor; type: physicochemical; details: modified Henderson-Hasselbalch fit, 37 °C
Description: Specifically, FaSSIF was prepared with different proportions of 0.2 mol/L disodium hydrogen phosphate (Na2HPO4) solution and 0.1 mol/L citric acid (C6H8O7) solution, with commercial standard FaSSIF powder. […] The final pH of each solution was measured before centrifugation at 10,000× g for 10 min at 37 °C. […] A sample volume of 10 μL was injected and subsequently separated on a Kromasil C18 column (5 μm, 4.6 × 250 mm) maintained at a temperature of 30 °C. The mobile phase consisted of a modified phosphoric acid solution containing 10 mM KH2PO4 in water (pH adjusted to 3.0), along with acetonitrile in a ratio of 50:50 (v/v). The flow rate employed was set at 1 mL/min while detection occurred at a wavelength of 254 nm.

[6] = aqueous phase of the duodenal cup

Q: Which “DSAUC (area under the degree of supersaturation over time curve)” value ([1]; Duodenal) does the source give for `CC(=O)N1CCN(c2ccc(OCC3COC(Cn4ccnc4)(c4ccc(Cl)cc4Cl)O3)cc2)CC1` (centres unmarked) [ketoconazole, Ketoconazole] here?
A: 3.715

Q: And the “DSAUC (area under the degree of supersaturation over time curve)” value ([1]; Jejunal)?
A: 5.452

Q: What about the major precipitation time [1, 6] of the same compound?
A: 19 min

Q: What about the “maximum concentration of ketoconazole” value [1, 6] of the same compound?
A: 1049 µg/mL

Q: And the “maximum concentration of ketoconazole” value ([1]; jejunal aqueous phase)?
A: 282 µg/mL

Q: And the “AUC, Prediction” value [2]?
A: 114,652 h·ng·mL^−1

Q: And the “Cmax, Prediction” value [2]?
A: 45,529 ng·mL^−1

Q: And the bioavailability (In vivo pharmacokinetics; male, Sprague Dawley, oral 10 mg/kg vs i.v. 2.5 mg/kg, read-out: absolute bioavailability)?
A: 70%

Q: What about the AUC (In vivo pharmacokinetics; male, Sprague Dawley, po, 10 mg/kg, read-out: AUC, Observation) of the same compound?
A: 113 µg·h/mL

Q: What about the Cmax (In vivo pharmacokinetics; male, Sprague Dawley, po, 10 mg/kg, read-out: Cmax, Observation) of the same compound?
A: 41300 ng/mL

Q: What about the “AUC, Observation” value (In vivo pharmacokinetics; oral 10 mg/kg ketoconazole) of the same compound?
A: 112,853 h·ng·mL^−1

Q: What about the “Cmax, Observation” value (In vivo pharmacokinetics; oral 10 mg/kg ketoconazole) of the same compound?
A: 41,300 ng·mL^−1

Q: What about the “AUC, Prediction” value [3] of the same compound?
A: 108,727 h·ng·mL^−1

Q: What about the “Cmax, Prediction” value [3] of the same compound?
A: 45,702 ng·mL^−1

Q: What about the “pKa, reported value” [4] of the same compound?
A: 6.5

Q: What about the pKa ([5]; FaSSIF (biorelevant fluid), read-out: pKa of the fitted pH-solubility function) of the same compound?
A: 6.32

Q: What about the solubility at 24 h ([5]; FaSSIF, read-out: CU (concentration of unionized form) of the fitted pH-solubility function) of the same compound?
A: 7.88 µg/mL (≈ 14.8 µM)
